In patent publication US20080268460A1, “Assays to Identify Irreversibly Binding Inhibitors of Receptor Tyrosine Kinases” (Wyeth, priority 2004, published 2008):

Columns and labels:
Assay type in all cases: biochemical
KDR wild type enzyme [1] = target: T1, KDR wild type enzyme (Homo sapiens, UniProt P35968); assay: Enzyme wash-out assay, KDR wild type
T1 construct: beginning at Val-805 (forward, 5′ tag cgg ccg cGT CATGGATCCAGATGAACTCCCATT (lower case—NotI site)) and ending at Val-1356; GST-His (thrombin cleavage site) (N, cleaved yes); made in house; HEK293 possible
Method: (§1) Parallel plates were tested for each test compound wherein one plate was processed as described above in section 6.3 and the second plate was washed three times in 100 ul of 4 mM HEPES, pH 7.4, to remove unbound compound. 1× kinase buffer (30 ul 1 mM MnCl2, 4 mM HEPES, pH 7.4, 20 μM Na3VO4) and 20 ul of ATP/MgCl2 were then added to the wash-out plate. The KDR-FLAG enzyme, as described in 6.1, was used in these assays.
(§2) This mutated protein was designated KDR-C1045A. Additionally, for comparison, the test compounds were assayed using the KDR wild type enzyme in both a basic enzyme assay as well as the enzyme wash-out assay.

KDR wild type enzyme [2] = target: T1, KDR wild type enzyme; assay: Basic enzyme assay, KDR wild type (GST-His-KDR-IC); conditions: mean ± standard deviation (N)
Method: as §2

KDR-C1045A [3] = target: T2, KDR-C1045A (Homo sapiens, UniProt P35968, C1045A); assay: Enzyme wash-out assay, KDR-C1045A mutant enzyme
T2 construct: beginning at Val-805 (forward, 5′ tag cgg ccg cGT CATGGATCCAGATGAACTCCCATT (lower case—NotI site)) and ending at Val-1356; GST-His (thrombin cleavage site) (N); made in house; the mutant was also made in HEK293
Method: as §1
(§3) The protein was expressed in HEK293 or Sf9 cells as described for the wild type protein in sections 6.1 and 6.2. The protein was also purified using the FLAG or GST/His tags.
as §2

KDR-C1045A [4] = target: T2, KDR-C1045A; assay: Basic enzyme assay, KDR-C1045A mutant enzyme
Method: as §3, §2

[5] = target: T3, KDR-FLAG enzyme (human KDR) (Homo sapiens, UniProt P35968); assay: Enzyme wash-out assay, KDR-FLAG enzyme; conditions: plate washed three times before ATP addition
T3 construct: starting at Met-806 (underlined) (5′-ATGGATCCAGATGAACTCCCATTG) and ending at Val-1356; made in house
Method: as §1

[6] = target: T4, KDR-IC-FLAG (human KDR, VEGF-receptor 2) (Homo sapiens, UniProt P35968); assay: KDR kinase enzyme assay (DELFIA) using KDR-IC-FLAG kinase, no wash-out; conditions: 10 uM ATP
T4 construct: starting at Met-806 (underlined) (5′-ATGGATCCAGATGAACTCCCATTG) and ending at Val-1356; made in house
Description: Controls were done by adding DMSO alone, i.e., no test compound, to wells containing the master mix of enzyme plus kinase buffer.

T2 sequence (P35968 805-1356 C1045A): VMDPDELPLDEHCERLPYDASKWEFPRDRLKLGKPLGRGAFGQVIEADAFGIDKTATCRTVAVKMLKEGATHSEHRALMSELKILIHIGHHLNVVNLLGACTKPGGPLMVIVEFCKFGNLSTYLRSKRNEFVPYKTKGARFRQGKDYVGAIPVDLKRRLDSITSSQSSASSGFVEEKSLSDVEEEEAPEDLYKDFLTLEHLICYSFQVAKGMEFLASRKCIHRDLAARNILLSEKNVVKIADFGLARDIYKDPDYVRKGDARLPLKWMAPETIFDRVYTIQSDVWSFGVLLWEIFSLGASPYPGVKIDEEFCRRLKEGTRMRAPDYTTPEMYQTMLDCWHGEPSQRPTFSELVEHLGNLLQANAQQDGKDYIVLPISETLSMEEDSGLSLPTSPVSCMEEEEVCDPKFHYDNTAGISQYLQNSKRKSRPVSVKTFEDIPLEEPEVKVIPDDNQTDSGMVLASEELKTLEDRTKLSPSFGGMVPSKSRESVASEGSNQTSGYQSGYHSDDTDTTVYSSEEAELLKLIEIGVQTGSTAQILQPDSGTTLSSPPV
T1 sequence (P35968 805-1356): as the sequence (P35968 805-1356 C1045A) above, with A241C counted along it
T4 sequence (P35968 806-1356): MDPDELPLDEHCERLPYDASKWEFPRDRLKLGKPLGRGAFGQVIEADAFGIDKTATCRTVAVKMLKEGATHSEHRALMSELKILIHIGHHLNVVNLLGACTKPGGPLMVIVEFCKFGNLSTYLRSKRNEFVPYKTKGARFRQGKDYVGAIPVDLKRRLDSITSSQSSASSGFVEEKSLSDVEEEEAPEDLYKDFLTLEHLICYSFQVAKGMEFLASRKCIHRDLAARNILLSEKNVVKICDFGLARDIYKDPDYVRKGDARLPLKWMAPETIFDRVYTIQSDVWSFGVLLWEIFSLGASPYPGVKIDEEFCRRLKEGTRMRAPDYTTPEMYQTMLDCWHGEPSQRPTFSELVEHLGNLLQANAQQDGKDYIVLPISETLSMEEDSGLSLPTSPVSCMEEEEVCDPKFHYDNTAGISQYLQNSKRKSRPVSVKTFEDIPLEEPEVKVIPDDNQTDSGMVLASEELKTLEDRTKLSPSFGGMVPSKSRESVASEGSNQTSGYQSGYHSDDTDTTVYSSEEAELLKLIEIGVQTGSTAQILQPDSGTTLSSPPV
T3 sequence (P35968 806-1356): as above

COc1cc2c(Oc3ccc4[nH]c(C)cc4c3F)c(C#N)cnc2cc1OCC1CCN(C)CC1 [4-[(4-fluoro-2-methyl-1H-indol-5-yl)oxy]-6-methoxy-7-[(1-methylpiperidin-4-yl)methoxy]quinoline-3-carbonitrile]
loss of activity upon wash out, wild type KDR (KDR wild type enzyme [1]; wash out vs no wash out): partially washed out
IC50 (KDR wild type enzyme [1]; wash out, mean ± standard deviation (N)): 277 nM
IC50 (KDR wild type enzyme [2]): 63.2 ± 23.5 nM
KDR-C1045A, WASH OUT percent inhibition at the high dose tested (KDR-C1045A [3]; high dose tested): 33%
IC50 (KDR-C1045A [3]; mean ± standard deviation (N)): > 1000 nM
loss of activity, mutant versus wild type KDR in basic enzyme assay (KDR-C1045A [4]; KDR-C1045A vs wild type): less than a five times loss of activity
IC50 (KDR-C1045A [4]; mean ± standard deviation (N)): 301 ± 140 nM

COCCOc1cc2ncnc(NC3=C(Sc4nccs4)C(=O)C=C(OC)C3=O)c2cc1OC [5-methoxy-3-{[6-methoxy-7-(2-methoxyethoxy)quinazolin-4-yl]amino}-2-(1,3-thiazoylthio)benzo-1,4-quinone]
IC50 [5]: 33.1 nM
IC50 [6]: 17.9 nM
